“And” between values parts separate entries of the source, which are not always exact repeats. Equal entries are not always repeated.
Experiments:
Format in all cases: in vivo, human
[1] = test system: healthy subject; experiment: General arterial pressure at doses that improve field of vision; settings: healthy subject
Text: Effective doses for producing effects in the ophtalmologic field are desirably lower than doses that would induce general arterial hypotension in a subject with normal pressure. Clearly, the doses that can be used can be higher in subjects with hypertension, although this is not necessary, since the desired effect is that obtained in the ophtalmologic field.

[2] = test system: patients with retinitis pigmentosa; experiment: Clinical treatment of retinitis pigmentosa: visual acuity, automated perimetry, electroretinogram; settings: for visual acuity after treatment: 1.25 mg orally, two months; for Mean drop MD: normal −2..2; for Corr. Loss variance CLV: normal 0..4; for Loss variance LV: normal 0..6; for Mean sensitivity MS: sectorial retinitis pigmentosa
Description: (§1) The invention will now be illustrated by the following description of clinical examples which, of course, are not limiting in nature. In these examples the active principle, in particular ramipril, was administered continuously in an oral form, in an amount of 1.25 mg per day.
FIGS. 5 and 6 reproduce the fields of vision of the left eye; FIGS. 7 and 8 reproduce the field of vision of the right eye as perceived by one of the treated patients who suffered from sectorial retinitis pigmentosa, respectively before treatment (FIGS. 5 and 7) and after treatment, two months later (FIGS. 6 and 8).
(§2) The grey scale provides an “image” of visual function, point by point, of different regions of the retina; the palest zones correspond to regions in which the visual functions are the least altered; the darkest zones correspond to those that have altered the most. […] A reduction in the darkest regions also indicates local visual recovery in regions that have become lighter.
(§3) The values that appear in the right hand portions of the figures correspond to the threshold values measured locally at set points in the retina. […] In contrast, the values that appear in the lower right hand portions of the figures correspond to local loss of vision in the zones concerned of the retina compared with the normal.
(§4) The Bebie curves also provide comparative images of the visual capacity of the subject under examination (lower curves) compared with the curves for normal or quasi-normal subjects (upper curves).
Three patients were treated with 1.25 mg of ramipril orally and their visual acuity improved in the space of two months: […]

[3] = test system: patient with pseudovitelliform dystrophy; experiment: Clinical treatment of adult pseudo-vitelliform dystrophy: visual acuity; settings: for visual acuity after treatment: one patient, one month
Description: as §1
Ramipril was used in the following three disorders: retinitis pigmentosa; Stargardt's disease, fundus flavimaculatus; adult pseudo-vitelliform dystrophy.
One patient was tested. Acuity improved in one month from 1.6 to 2/10 in the right eye and from 2/10 to 3/10 in the left eye. The activity of the ramipril in these hereditary dystrophies is unique.

[4] = test system: patients with retinal venous occlusion; experiment: Clinical treatment of retinal venous occlusions; settings: for visual acuity after treatment: oedematous and ischemic type venous branch occlusion, two months
Description: as §1

[5] = test system: severely myopic patients with degenerative chorioretinopathy; experiment: Clinical treatment of degenerative chorio-retinopathy in severe myopia: corrected visual acuity
Description: as §1
By way of example, visual acuity changed respectively: from simple light perception (LP) to 1/20 for the monophtalmic eye; from 2/10 (RE) 1/10 (LE) to 5/10 (RE) and 5/10 (LE); from 1.5/10 to 3/10; from 1/20 (both eyes) to 2/10 (RE) and 1/10 (LE); from 1/10 (RE) and 1/10 (LE) to 6/10 (RE) and 3/10 (LE). Clearly, the term RE used here means “right eye” and the term LE used here means “left eye”.

[6] = test system: patients with glaucomatous neuropathy; experiment: Clinical treatment of glaucomatous neuropathy: visual acuity, automated perimetry, ocular tension; settings: for Mean drop MD: normal −2..2; for Corr. Loss variance CLV: normal 0..4; for Loss variance LV: normal 0..6; for visual acuity after treatment: most spectacular case
Description: as §1
FIGS. 1 and 2 reproduce the fields of vision of the left eye; FIGS. 3 and 4 reproduce the field of vision of the right eye as perceived by one of the treated patients who suffered from glaucomatous neuropathy, respectively before treatment (FIGS. 1 and 3) and after treatment, 10 days later (FIGS. 2 and 4).
as §2, §3, §4

[7] = test system: patients with age-related macular degeneration; experiment: Clinical treatment of age-related macular degeneration (ARMD): visual acuity
Description: as §1
By way of example, visual acuity changed respectively from 0.16 to 0.3; 0.2 to 0.5; from 0.05 to 0.2 (right eye) and 0.05 to 0.15 (left eye); from 0.2 to 0.4 (right eye) and from 0.5 to 0.8 (left eye); from 0.6 to 1; from 0.4 to 0.6 (right eye) and from 0.2 to 0.5 (left eye).

[8] = test system: patients with central serous chorioretinopathy; experiment: Clinical treatment of retinal epitheliopathy and central serous chorioretinopathy (CSCR); settings: in a few days to a few weeks
Description: as §1

effect on arterial pressure of doses that improve field of vision [1]: do not cause arterial hypertension
SMILES: CCOC(=O)[C@H](CCc1ccccc1)N[C@@H](C)C(=O)N1[C@H](C(=O)O)C[C@@H]2CCC[C@@H]21 [ramipril]
visual acuity after treatment ([2]; first patient, right eye, before doubtful light perception): 1/50
visual function ([2]; retinitis pigmentosa, all cases): improvement in visual function
visual acuity after treatment ([2]; second patient, monophthalmic, before 2/10): 5/10
visual acuity after treatment ([2]; third patient (sectorial), left eye, before 1.6): 4/10
visual acuity after treatment ([2]; third patient (sectorial), right eye, before 1.6): 6/10
Mean drop MD ([2]; third patient, left eye after two months, Mean, before 10.3): 6.5 dB
Corr. Loss variance CLV ([2]; third patient, left eye after two months, Mean, before 52.5): 48.0 dB^2
Mean drop MD ([2]; third patient, left eye after two months, Phase 1, before 9.8): 6.2 dB
Loss variance LV ([2]; third patient, left eye after two months, Phase 1, before 60.6): 51.8 dB
Mean drop MD ([2]; third patient, left eye after two months, Phase 2, before 9.6): 7.0 dB
Loss variance LV ([2]; third patient, left eye after two months, Phase 2, before 52.8): 63.9 dB
Mean drop MD ([2]; third patient, right eye after two months, Mean, before 10.6): 8.8 dB
Corr. Loss variance CLV ([2]; third patient, right eye after two months, Mean, before 66.0): 65.6 dB^2
Mean drop MD ([2]; third patient, right eye after two months, Phase 1, before 10.2): 8.7 dB
Loss variance LV ([2]; third patient, right eye after two months, Phase 1, before 70.4): 67.5 dB
Mean drop MD ([2]; third patient, right eye after two months, Phase 2, before 11.5): 9.2 dB
Loss variance LV ([2]; third patient, right eye after two months, Phase 2, before 86.9): 79.8 dB
Mean sensitivity MS ([2]; third patient, left eye after two months, Mean, before 16.8): 19.9 and 20.9
Mean sensitivity MS ([2]; third patient, left eye after two months, Phase 1, before 17.3): 21.2
Mean sensitivity MS ([2]; third patient, left eye after two months, Phase 2, before 17.9): 20.8
Mean sensitivity MS ([2]; third patient, right eye after two months, Mean, before 16.5): 18 and 18.3
Mean sensitivity MS ([2]; third patient, right eye after two months, Phase 1, before 16.8): 18.4
Mean sensitivity MS ([2]; third patient, right eye after two months, Phase 2, before 16.0): 18.2
electroretinogram ([2]; third patient, especially in the red and in the left eye): substantially improved
visual function ([3]; adult pseudo-vitelliform dystrophy, all cases): improvement in visual function
visual acuity after treatment ([3]; left eye, before 2/10): 3/10
visual acuity after treatment ([3]; right eye, before 1.6): 2/10
visual acuity after treatment ([4]; first patient, before 2/10): 8/10
functional and angiographic outcome ([4]; majority of patients treated): improved both on the functional and on the angiographic level
visual acuity after treatment ([4]; second patient, before 6/10): 10/10
visual acuity after treatment ([5]; case 1, monophtalmic eye, before simple light perception (LP)): 1/20
visual acuity after treatment ([5]; case 2, LE, before 1/10): 5/10
visual acuity after treatment ([5]; case 2, RE, before 2/10): 5/10
visual acuity after treatment ([5]; case 3, before 1.5/10): 3/10
visual acuity after treatment ([5]; case 4, LE, before 1/20): 1/10
visual acuity after treatment ([5]; case 4, RE, before 1/20): 2/10
visual acuity after treatment ([5]; case 5, LE, before 1/10): 3/10
visual acuity after treatment ([5]; case 5, RE, before 1/10): 6/10
corrected visual acuity ([5]; even in a low dose, always, despite extremely severe myopic choroidosis): improvement in corrected visual acuity
scotomas ([6]; automated perimetry): absolute scotomas became relative
reduction of loss in mean sensitivity ([6]; automated perimetry, on average): 30%
ocular tension ([6]; irregular amount): Significant reduction
Mean drop MD ([6]; left eye after treatment (10 days), Mean, before 9.9): 6.2 dB
Corr. Loss variance CLV ([6]; left eye after treatment (10 days), Mean, before 22.4): 13.1 dB^2
Mean sensitivity MS ([6]; left eye after treatment (10 days), Mean, before treatment 16.5): 20.2
Mean drop MD ([6]; left eye after treatment (10 days), Phase 1, before 9.5): 5.7 dB
Loss variance LV ([6]; left eye after treatment (10 days), Phase 1, before 26.8): 16.8 dB
Mean sensitivity MS ([6]; left eye after treatment (10 days), Phase 1, before treatment 16.9): 20.0
Mean drop MD ([6]; left eye after treatment (10 days), Phase 2, before 9.4): 6.8 dB
Loss variance LV ([6]; left eye after treatment (10 days), Phase 2, before 29.3): 26.5 dB
Mean sensitivity MS ([6]; left eye after treatment (10 days), Phase 2, before treatment 17.3): 20.0
visual acuity after treatment ([6]; LE, before 3/10): 10/10
visual acuity after treatment ([6]; RE, before 6/10): 8/10
Mean drop MD ([6]; right eye after treatment (10 days), Mean, before 9.5): 4.8 dB
Corr. Loss variance CLV ([6]; right eye after treatment (10 days), Mean, before 21.8): 13.1 dB^2
Mean sensitivity MS ([6]; right eye after treatment (10 days), Mean, before treatment 16.9): 21.6
Mean drop MD ([6]; right eye after treatment (10 days), Phase 1, before 9.0): 4.1 dB
Loss variance LV ([6]; right eye after treatment (10 days), Phase 1, before 28.6): 17.2 dB
Mean sensitivity MS ([6]; right eye after treatment (10 days), Phase 1, before treatment 17.4): 22.2
Mean drop MD ([6]; right eye after treatment (10 days), Phase 2, before 9.3): 4.7 dB
Loss variance LV ([6]; right eye after treatment (10 days), Phase 2, before 21.0): 10.4 dB
Mean sensitivity MS ([6]; right eye after treatment (10 days), Phase 2, before treatment 17.4): 21.9
visual acuity after treatment ([7]; case 1, before 0.16): 0.3
visual acuity after treatment ([7]; case 2, before 0.2): 0.5
visual acuity after treatment ([7]; case 3, left eye, before 0.05): 0.15
visual acuity after treatment ([7]; case 3, right eye, before 0.05): 0.2
visual acuity after treatment ([7]; case 4, left eye, before 0.5): 0.8
visual acuity after treatment ([7]; case 4, right eye, before 0.2): 0.4
visual acuity after treatment ([7]; case 5, before 0.6): 1
visual acuity after treatment ([7]; case 6, left eye, before 0.2): 0.5
visual acuity after treatment ([7]; case 6, right eye, before 0.4): 0.6
visual acuity ([7]; majority of patients, with or without sub-retinal neovessels): improved visual acuity
blister (retinal serous detachment) [8]: reduction in the blister
visual acuity and central field of vision [8]: improvement in visual acuity and in the central field of vision

Reference: US7049340B1, “Neuroprotective and retinoprotective ophthalmologic drugs” (priority 1999, dated 2006)
